Measured values published in PubChem BioAssay AID328 (DTP/NCI, 2004).
Where “and” joins values, the source holds several entries; their conditions need not be identical. Equal entries are not always repeated. Toxic doses and inconclusive results are not listed.

Test system: BDF1 mice, P388 leukemia ip, median survival T/C
Assay: NCI In Vivo Anticancer Drug Screen. Data for tumor model P388 Leukemia (intraperitoneal) in B6D2F1 (BDF1) mice
Details: endpoint: median survival time, higher = longer survival
Outline: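 Mice carrying the transplantable tumour receive compound or vehicle. Survival is followed in each arm, and the treated measure is divided by the vehicle measure.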

[1] = dose: 100.0 mg/kg/injection, schedule: Q01DX009 (ip), vehicle: saline
[2] = dose: 200.0 mg/kg/injection, schedule: Q01DX009 (ip), vehicle: saline
[3] = dose: 100.0 mg/kg/injection, schedule: Q01DX009 (ip), vehicle: saline with Tween-80
[4] = dose: 100.0 mg/kg/injection, schedule: Q04DX003 (ip), vehicle: saline sonified
[5] = dose: 200.0 mg/kg/injection, schedule: Q01DX009 (ip), vehicle: saline with Tween-80
[6] = dose: 12.5 mg/kg/injection, schedule: Q01DX009 (ip), vehicle: saline with Tween-80
[7] = dose: 50.0 mg/kg/injection, schedule: Q01DX009 (ip), vehicle: saline with Tween-80
[8] = dose: 25.0 mg/kg/injection, schedule: Q01DX009 (ip), vehicle: Klucel (hydroxypropylcellulose) (HPC)
[9] = dose: 100.0 mg/kg/injection, schedule: Q01DX009 (ip), vehicle: Klucel (hydroxypropylcellulose) (HPC)

O=C(O)C(NC1CCCCC1)c1ccccc1 (centres undefined)
T/C (dose: 50.0 mg/kg/injection, schedule: Q01DX009 (ip), vehicle: saline): 120 % of control
T/C [1]: 105 % of control
T/C [2]: 100 % of control

N#CC(O)Cc1ccccc1 (centres undefined)
T/C (dose: 2.5 mg/kg/injection, schedule: Q01DX009 (ip), vehicle: other): 100 % of control
T/C (dose: 5.0 mg/kg/injection, schedule: Q01DX009 (ip), vehicle: other): 100 % of control
T/C (dose: 10.0 mg/kg/injection, schedule: Q01DX009 (ip), vehicle: other): 100 % of control

COc1cc2c(cc1OC)-c1c(C)c3ccc(OC)c(NCc4ccccc4)c3c[n+]1CC2
T/C (dose: 1.56 mg/kg/injection, schedule: Q04DX003 (ip), vehicle: other): 107 % of control
T/C (dose: 3.13 mg/kg/injection, schedule: Q04DX003 (ip), vehicle: other): 100 % of control
T/C (dose: 6.25 mg/kg/injection, schedule: Q04DX003 (ip), vehicle: other): 90 % of control

CSCC(NC(=O)OCc1ccccc1)C(=O)O (centres undefined)
T/C (dose: 50.0 mg/kg/injection, schedule: Q04DX003 (ip), vehicle: saline with Tween-80): 95 % of control
T/C (dose: 100.0 mg/kg/injection, schedule: Q04DX003 (ip), vehicle: saline with Tween-80): 109 % of control
T/C (dose: 200.0 mg/kg/injection, schedule: Q04DX003 (ip), vehicle: saline with Tween-80): 100 % of control

Cc1c([C@H](C)[C@@H]2NC[C@@H](C)C[C@H]2O)ccc2c1C[C@H]1[C@H]2CC=C2C[C@@H](O)CC[C@@]21C
T/C (dose: 3.0 mg/kg/injection, schedule: Q01DX010 (ip), vehicle: carboxymethylcellulose (CMC)): 115 % of control

CC1(C)CCC2(C)CC=C3OC(=O)CCC3(C)C2C1 (centres undefined)
T/C [3]: 118 % of control
T/C [4]: 100 % of control
T/C [5]: 100 % of control
T/C (dose: 200.0 mg/kg/injection, schedule: Q04DX003 (ip), vehicle: saline sonified): 100 % of control
T/C (dose: 400.0 mg/kg/injection, schedule: Q01DX009 (ip), vehicle: saline with Tween-80): 109 % of control
T/C (dose: 400.0 mg/kg/injection, schedule: Q04DX003 (ip), vehicle: saline sonified): 95 % of control

COc1cc(/C=N\N=C\c2ccc(O)c(OC)c2)ccc1O
T/C (dose: 100.0 mg/kg/injection, schedule: Q01DX001 (ip), vehicle: saline with Tween-80): 100 % of control
T/C (dose: 200.0 mg/kg/injection, schedule: Q01DX001 (ip), vehicle: saline with Tween-80): 104 % of control
T/C (dose: 400.0 mg/kg/injection, schedule: Q01DX001 (ip), vehicle: saline with Tween-80): 100 % of control

NC(N)=N/N=C/c1cccc2ccccc12
T/C (dose: 6.25 mg/kg/injection, schedule: Q01DX009 (ip), vehicle: saline with Tween-80): 100 % of control
T/C [6]: 108 % of control
T/C (dose: 25.0 mg/kg/injection, schedule: Q01DX009 (ip), vehicle: saline with Tween-80): 108 % of control

CCCCCCCCCCCCN=Cc1cc(Cc2ccc(O)c(C=NCCCCCCCCCCCC)c2)ccc1O
T/C [7]: 106 % of control
T/C [3]: 106 % of control
T/C [5]: 123 % of control

O=C(O)CNC1CSSC1
T/C (dose: 1.56 mg/kg/injection, schedule: Q04DX003 (ip), vehicle: water): 97 % of control
T/C (dose: 3.12 mg/kg/injection, schedule: Q01DX009 (ip), vehicle: water): 111 % of control
T/C (dose: 3.12 mg/kg/injection, schedule: Q04DX003 (ip), vehicle: water): 88 % of control
T/C (dose: 6.25 mg/kg/injection, schedule: Q01DX009 (ip), vehicle: water): 101 % of control
T/C (dose: 6.25 mg/kg/injection, schedule: Q04DX003 (ip), vehicle: water): 93 % of control
T/C (dose: 12.5 mg/kg/injection, schedule: Q04DX003 (ip), vehicle: water): 88 % of control
T/C (dose: 25.0 mg/kg/injection, schedule: Q01DX009 (ip), vehicle: water): 109 % of control
T/C (dose: 25.0 mg/kg/injection, schedule: Q04DX003 (ip), vehicle: water): 94 % of control
T/C (dose: 50.0 mg/kg/injection, schedule: Q01DX009 (ip), vehicle: water): 108 % of control
T/C (dose: 50.0 mg/kg/injection, schedule: Q04DX003 (ip), vehicle: water): 86 % of control
T/C (dose: 100.0 mg/kg/injection, schedule: Q01DX009 (ip), vehicle: water): 91 % of control

CN=S(=O)(OCCCCCCCCCOS(=O)(=NC)c1ccc(C)cc1)c1ccc(C)cc1 (centres undefined)
T/C [6]: 108 % of control
T/C [7]: 117 % of control

BrCc1ccc(CBr)c(Br)c1
T/C (dose: 6.0 mg/kg/injection, schedule: Q01DX009 (ip), vehicle: Klucel (hydroxypropylcellulose) (HPC)): 89 % of control
T/C (dose: 6.25 mg/kg/injection, schedule: Q04DX003 (ip), vehicle: Klucel (hydroxypropylcellulose) (HPC)): 92 % of control
T/C (dose: 12.0 mg/kg/injection, schedule: Q01DX009 (ip), vehicle: Klucel (hydroxypropylcellulose) (HPC)): 103 % of control
T/C (dose: 12.5 mg/kg/injection, schedule: Q04DX003 (ip), vehicle: Klucel (hydroxypropylcellulose) (HPC)): 96 % of control
T/C [8]: 96 % of control
T/C (dose: 25.0 mg/kg/injection, schedule: Q04DX003 (ip), vehicle: Klucel (hydroxypropylcellulose) (HPC)): 100 % of control

O=C(Nc1cc(C(F)(F)F)cc(C(F)(F)F)c1)Nc1c(Oc2ccc(Cl)cc2Cl)ccc(Cl)c1S(=O)(=O)O
T/C (dose: 50.0 mg/kg/injection, schedule: Q04DX003 (ip), vehicle: saline sonified): 87 % of control
T/C [4]: 87 % of control

CN1CCN(c2ccc([N+](=O)[O-])c3no[n+]([O-])c23)CC1
T/C (dose: 10.0 mg/kg/injection, schedule: Q01DX009 (ip), vehicle: saline with Tween-80): 166 % of control
T/C (dose: 20.0 mg/kg/injection, schedule: Q01DX009 (ip), vehicle: saline with Tween-80): 169 % of control

CCOC(=O)CCN(C)C
T/C [1]: 102 % of control
T/C [2]: 95 % of control
T/C (dose: 400.0 mg/kg/injection, schedule: Q01DX009 (ip), vehicle: saline): 102 % of control

COc1ccc(C(=O)/C=C/c2ccccc2)c(O)c1CC=C(C)C (tested in a mixture with another compound)
T/C (dose: 3.12 mg/kg/injection, schedule: Q01DX009 (ip), vehicle: Klucel (hydroxypropylcellulose) (HPC)): 90 % of control
T/C (dose: 6.25 mg/kg/injection, schedule: Q01DX009 (ip), vehicle: Klucel (hydroxypropylcellulose) (HPC)): 102 % of control
T/C (dose: 12.5 mg/kg/injection, schedule: Q01DX009 (ip), vehicle: Klucel (hydroxypropylcellulose) (HPC)): 107 % of control
T/C [8]: 109 % of control
T/C (dose: 50.0 mg/kg/injection, schedule: Q01DX009 (ip), vehicle: Klucel (hydroxypropylcellulose) (HPC)): 91 % of control
T/C [9]: 92 % of control

CC(=O)OCC1OC(n2cc(C(F)(F)F)c(=O)[nH]c2=O)CC1OC(C)=O (centres undefined)
T/C (dose: 62.5 mg/kg/injection, schedule: Q01DX009 (ip), vehicle: Klucel (hydroxypropylcellulose) (HPC)): 95 % of control
T/C [9]: 100 % of control
T/C (dose: 125.0 mg/kg/injection, schedule: Q01DX009 (ip), vehicle: Klucel (hydroxypropylcellulose) (HPC)): 109 % of control
T/C (dose: 200.0 mg/kg/injection, schedule: Q01DX009 (ip), vehicle: Klucel (hydroxypropylcellulose) (HPC)): 100 % of control
T/C (dose: 250.0 mg/kg/injection, schedule: Q01DX009 (ip), vehicle: Klucel (hydroxypropylcellulose) (HPC)): 90 % of control
T/C (dose: 400.0 mg/kg/injection, schedule: Q01DX009 (ip), vehicle: Klucel (hydroxypropylcellulose) (HPC)): 105 % of control
T/C (dose: 500.0 mg/kg/injection, schedule: Q01DX009 (ip), vehicle: Klucel (hydroxypropylcellulose) (HPC)): 109 % of control

CC(=O)O[C@]1(C(C)=O)CC[C@H]2[C@@H]3C[C@H](C)C4=CC(=O)C=C[C@]4(C)[C@@]3(F)[C@@H](O)C[C@@]21C
T/C (dose: 12.5 mg/kg/injection, schedule: Q01DX010 (sc), vehicle: steriod suspending solution): 100 % of control and 108 % of control
T/C (dose: 25.0 mg/kg/injection, schedule: Q01DX010 (sc), vehicle: steriod suspending solution): 100 % of control and 112 % of control
T/C (dose: 50.0 mg/kg/injection, schedule: Q01DX010 (sc), vehicle: steriod suspending solution): 95 % of control and 112 % of control
T/C (dose: 100.0 mg/kg/injection, schedule: Q01DX010 (sc), vehicle: steriod suspending solution): 91 % of control and 104 % of control

O=[N+]([O-])CC1CCCCC1O (centres undefined)
T/C (dose: 6.25 mg/kg/injection, schedule: Q04DX003 (ip), vehicle: saline with Tween-80): 100 % of control
T/C (dose: 12.5 mg/kg/injection, schedule: Q04DX003 (ip), vehicle: saline with Tween-80): 100 % of control
T/C (dose: 25.0 mg/kg/injection, schedule: Q04DX003 (ip), vehicle: saline with Tween-80): 90 % of control

Cc1ccc(S[Si](Sc2ccc(C)cc2)(Sc2ccc(C)cc2)Sc2ccc(C)cc2)cc1
T/C (dose: 200.0 mg/kg/injection, schedule: Q04DX002 (ip), vehicle: saline with Tween-80): 92 % of control
T/C (dose: 400.0 mg/kg/injection, schedule: Q04DX002 (ip), vehicle: saline with Tween-80): 100 % of control

COC(=O)C(Sc1ccc(Cl)cc1)C1SC(=S)N(Cc2ccccc2)C1=O (centres undefined)
T/C [7]: 104 % of control
T/C [3]: 118 % of control
T/C [5]: 109 % of control
